According to ChEMBL document CHEMBL1201862, “PubChem BioAssay data set” (2004):
The source made the active and inactive calls.

Legend:
[1] = target: T1, Bcl-2-related protein A1 (Mus musculus, UniProt Q07440); assay: small-molecule antagonists of Bfl-1/BH3 interaction – biochemical, TR-FRET, mouse Bfl-1, confirmation (AID 621);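 also: TR-FRET binding of GST-Bfl-1 to FITC-labelled Bid peptide via terbium antibody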
T1 sequence (Q07440 whole entry): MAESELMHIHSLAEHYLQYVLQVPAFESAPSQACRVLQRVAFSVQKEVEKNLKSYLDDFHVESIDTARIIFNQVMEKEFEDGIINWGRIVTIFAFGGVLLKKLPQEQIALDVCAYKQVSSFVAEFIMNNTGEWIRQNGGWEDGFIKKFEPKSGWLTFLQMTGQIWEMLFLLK

[2] = target: T1, Bcl-2-related protein A1; assay: Bfl-1 binding inhibitors, SAR follow-up, biochemical, fluorescence polarization (AID 1070)
[3] = target: T2, Protein skinhead-1 (Caenorhabditis elegans, UniProt P34707); type: functional
T2 sequence (P34707 whole entry): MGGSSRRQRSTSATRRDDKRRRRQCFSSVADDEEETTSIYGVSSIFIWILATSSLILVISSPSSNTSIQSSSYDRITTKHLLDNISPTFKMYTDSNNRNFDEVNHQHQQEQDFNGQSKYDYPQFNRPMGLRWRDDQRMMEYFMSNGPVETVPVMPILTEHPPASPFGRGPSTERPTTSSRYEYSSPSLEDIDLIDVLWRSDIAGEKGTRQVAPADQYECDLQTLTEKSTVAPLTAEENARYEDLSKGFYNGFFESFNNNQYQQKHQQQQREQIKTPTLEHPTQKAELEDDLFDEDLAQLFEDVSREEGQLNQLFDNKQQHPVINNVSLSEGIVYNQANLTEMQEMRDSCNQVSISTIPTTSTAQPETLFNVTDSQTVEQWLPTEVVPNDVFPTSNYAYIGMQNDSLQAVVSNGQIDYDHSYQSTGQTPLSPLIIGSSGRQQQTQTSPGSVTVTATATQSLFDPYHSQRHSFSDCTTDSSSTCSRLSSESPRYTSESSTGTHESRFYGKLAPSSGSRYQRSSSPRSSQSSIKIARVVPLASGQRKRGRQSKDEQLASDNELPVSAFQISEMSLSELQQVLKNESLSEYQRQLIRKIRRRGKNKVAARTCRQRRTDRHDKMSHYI

[4] = target: T3, Oxysterols receptor LXR-beta (Homo sapiens, UniProt P55055); type: functional, cell-based;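 also: agonist activity at LXR measured by a cell-based luminescence readout across a dose range, run as a counterscreen for daf-12 agonists; HEK293 cells with Gal4-LXR fusion and GAL4-driven luciferase reporter; potency for activation of Gal4-LXR reporter so compounds are agonists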
T3 sequence (P55055 whole entry): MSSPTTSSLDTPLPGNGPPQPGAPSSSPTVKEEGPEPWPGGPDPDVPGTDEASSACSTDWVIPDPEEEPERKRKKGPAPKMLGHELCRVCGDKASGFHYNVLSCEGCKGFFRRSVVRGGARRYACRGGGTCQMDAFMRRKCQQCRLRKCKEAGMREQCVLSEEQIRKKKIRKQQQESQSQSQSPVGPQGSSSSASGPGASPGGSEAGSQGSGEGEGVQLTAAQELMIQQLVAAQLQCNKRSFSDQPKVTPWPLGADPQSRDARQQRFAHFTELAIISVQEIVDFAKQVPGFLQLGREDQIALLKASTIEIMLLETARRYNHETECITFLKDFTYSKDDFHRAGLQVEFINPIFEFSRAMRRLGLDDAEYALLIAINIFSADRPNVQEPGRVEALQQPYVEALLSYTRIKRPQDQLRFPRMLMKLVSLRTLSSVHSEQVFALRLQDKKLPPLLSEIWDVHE

[5] = target: Complement C1s subcomponent (Homo sapiens, UniProt P09871); assay: Complement C1s ELISA. [Related pubchem assays: 538, 787 ]; type: functional
Complement C1s subcomponent, sequence (P09871 16-437 limits assumed): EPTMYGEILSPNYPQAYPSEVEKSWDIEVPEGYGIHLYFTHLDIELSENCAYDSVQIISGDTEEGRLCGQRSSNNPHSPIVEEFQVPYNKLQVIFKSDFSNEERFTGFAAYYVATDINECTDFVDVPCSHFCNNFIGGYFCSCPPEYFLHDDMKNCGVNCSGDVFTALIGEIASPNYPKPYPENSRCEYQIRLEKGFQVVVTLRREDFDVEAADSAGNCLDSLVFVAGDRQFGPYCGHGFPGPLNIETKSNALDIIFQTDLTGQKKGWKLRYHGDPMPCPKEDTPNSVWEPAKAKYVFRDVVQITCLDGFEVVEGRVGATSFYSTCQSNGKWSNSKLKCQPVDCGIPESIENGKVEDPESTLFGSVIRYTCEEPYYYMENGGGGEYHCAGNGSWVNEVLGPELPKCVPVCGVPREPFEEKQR
Complement C1s subcomponent, sequence (P09871 438-688 limits assumed): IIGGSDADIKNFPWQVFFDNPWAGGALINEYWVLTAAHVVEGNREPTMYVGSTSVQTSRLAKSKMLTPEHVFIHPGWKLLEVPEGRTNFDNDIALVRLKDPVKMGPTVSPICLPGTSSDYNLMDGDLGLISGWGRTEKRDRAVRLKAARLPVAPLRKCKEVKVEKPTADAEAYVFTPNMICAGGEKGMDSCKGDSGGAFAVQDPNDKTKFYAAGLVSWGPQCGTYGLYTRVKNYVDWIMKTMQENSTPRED

[6] = target: E3 ubiquitin-protein ligase Mdm2 (Homo sapiens, UniProt Q00987); assay: MDM2-luc reporter signal enhancers, multi-concentration potency testing, MDM2 ubiquitin-protein ligase inhibitor program, whole-cell format, luminescence detection, 384-well microplate (AID 1394); type: functional;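 also: MDM2 E3 inhibitors raise luminescence so EC50 is for signal enhancement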
E3 ubiquitin-protein ligase Mdm2, sequence (Q00987 whole entry): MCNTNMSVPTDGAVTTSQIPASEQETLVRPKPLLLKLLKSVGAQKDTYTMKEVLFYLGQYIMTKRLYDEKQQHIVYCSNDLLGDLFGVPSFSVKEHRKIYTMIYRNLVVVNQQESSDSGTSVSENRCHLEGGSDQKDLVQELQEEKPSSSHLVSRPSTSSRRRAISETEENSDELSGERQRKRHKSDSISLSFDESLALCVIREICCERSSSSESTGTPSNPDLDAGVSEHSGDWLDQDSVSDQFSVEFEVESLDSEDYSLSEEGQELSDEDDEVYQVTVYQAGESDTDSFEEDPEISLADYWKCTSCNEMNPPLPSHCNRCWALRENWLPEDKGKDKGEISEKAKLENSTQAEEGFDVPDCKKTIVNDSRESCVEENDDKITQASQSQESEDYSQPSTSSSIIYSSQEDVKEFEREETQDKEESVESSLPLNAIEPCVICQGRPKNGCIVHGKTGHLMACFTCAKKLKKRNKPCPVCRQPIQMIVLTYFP

[7] = cells; type: functional, cell-based
[8] = cells; type: functional, cell-based; remark: listed apart in the source
[9] = target: T4, Kappa-type opioid receptor (Homo sapiens, UniProt P41145); type: functional
T4 sequence (P41145 whole entry): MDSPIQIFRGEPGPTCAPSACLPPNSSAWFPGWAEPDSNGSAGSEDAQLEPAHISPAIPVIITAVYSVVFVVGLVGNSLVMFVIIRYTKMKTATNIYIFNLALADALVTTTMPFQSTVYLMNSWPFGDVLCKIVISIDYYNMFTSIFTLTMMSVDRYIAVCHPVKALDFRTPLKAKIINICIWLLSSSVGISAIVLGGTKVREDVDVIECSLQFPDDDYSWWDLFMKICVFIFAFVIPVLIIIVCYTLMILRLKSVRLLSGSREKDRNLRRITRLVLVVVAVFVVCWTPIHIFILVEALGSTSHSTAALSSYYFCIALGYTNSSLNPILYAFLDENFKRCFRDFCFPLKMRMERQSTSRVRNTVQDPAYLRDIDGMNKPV

[10] = target: Beta-galactosidase (Escherichia coli, UniProt Q8VNN2); type: functional
Beta-galactosidase, sequence (Q8VNN2 whole entry): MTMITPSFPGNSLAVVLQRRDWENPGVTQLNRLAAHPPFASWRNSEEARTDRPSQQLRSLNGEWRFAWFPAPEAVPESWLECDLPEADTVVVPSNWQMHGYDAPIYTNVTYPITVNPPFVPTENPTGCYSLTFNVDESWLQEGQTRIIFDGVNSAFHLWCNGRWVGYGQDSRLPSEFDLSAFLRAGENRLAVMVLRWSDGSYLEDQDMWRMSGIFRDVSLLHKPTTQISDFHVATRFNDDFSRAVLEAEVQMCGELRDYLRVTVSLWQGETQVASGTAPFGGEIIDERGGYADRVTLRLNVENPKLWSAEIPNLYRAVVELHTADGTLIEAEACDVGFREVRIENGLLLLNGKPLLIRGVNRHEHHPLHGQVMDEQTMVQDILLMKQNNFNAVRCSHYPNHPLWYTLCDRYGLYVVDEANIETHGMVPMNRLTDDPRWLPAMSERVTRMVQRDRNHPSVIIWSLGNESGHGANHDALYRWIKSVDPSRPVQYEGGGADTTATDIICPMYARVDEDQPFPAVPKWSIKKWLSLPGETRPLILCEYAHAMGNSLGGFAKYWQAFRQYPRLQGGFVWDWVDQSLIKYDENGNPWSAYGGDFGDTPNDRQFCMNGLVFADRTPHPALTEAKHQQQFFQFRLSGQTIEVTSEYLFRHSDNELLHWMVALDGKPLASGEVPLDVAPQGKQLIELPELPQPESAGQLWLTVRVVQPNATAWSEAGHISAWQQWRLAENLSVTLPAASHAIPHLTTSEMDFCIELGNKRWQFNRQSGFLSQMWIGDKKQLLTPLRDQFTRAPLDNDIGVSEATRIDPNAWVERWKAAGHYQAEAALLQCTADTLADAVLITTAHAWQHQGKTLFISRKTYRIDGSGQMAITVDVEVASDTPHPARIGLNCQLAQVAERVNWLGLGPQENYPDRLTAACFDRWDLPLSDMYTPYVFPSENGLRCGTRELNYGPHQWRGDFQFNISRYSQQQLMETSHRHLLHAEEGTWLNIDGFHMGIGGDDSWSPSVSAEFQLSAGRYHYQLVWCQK

[11] = target: T4, Kappa-type opioid receptor; type: functional; remark: listed apart in the source
[12] = Luminescence Cell-Based Dose Retest to Confirm Inhibitors of Cancer Stem Cells. [Related pubchem assays (depositor defined):AID2717, AID2721]; type: functional; conditions: Homo sapiens
[13] = target: Nonstructural protein 1 (Influenza A virus, UniProt Q194T2); type: functional, Influenza A virus (A/California/07/2009(H1N1))
Nonstructural protein 1, sequence (Q194T2 whole entry): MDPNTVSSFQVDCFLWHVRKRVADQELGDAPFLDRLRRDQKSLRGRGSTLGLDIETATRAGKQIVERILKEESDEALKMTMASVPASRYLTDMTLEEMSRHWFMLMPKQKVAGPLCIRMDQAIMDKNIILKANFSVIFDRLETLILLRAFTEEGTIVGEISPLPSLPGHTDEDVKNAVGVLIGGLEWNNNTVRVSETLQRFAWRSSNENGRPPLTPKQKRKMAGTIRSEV

[14] = M. tuberculosis growth inhibition, HTS (AID 449762); type: functional
[15] = Luminescent dose response cell-based high throughput screening assay for inhibitors of the Janus kinase 2 mutant JAK2V617F. [Related pubchem assays: 1446 (Primary screen.), 1521 (Confirmation assay.), 1486 (Counter screen.)]; type: functional
[16] = target: Voltage-gated inwardly rectifying potassium channel KCNH2 (Homo sapiens, UniProt Q12809); assay: concentration-dependent hERG rescue from blockers – cell-based, thallium flux, dose response (AID 2121); type: ADME
Voltage-gated inwardly rectifying potassium channel KCNH2, sequence (Q12809 whole entry): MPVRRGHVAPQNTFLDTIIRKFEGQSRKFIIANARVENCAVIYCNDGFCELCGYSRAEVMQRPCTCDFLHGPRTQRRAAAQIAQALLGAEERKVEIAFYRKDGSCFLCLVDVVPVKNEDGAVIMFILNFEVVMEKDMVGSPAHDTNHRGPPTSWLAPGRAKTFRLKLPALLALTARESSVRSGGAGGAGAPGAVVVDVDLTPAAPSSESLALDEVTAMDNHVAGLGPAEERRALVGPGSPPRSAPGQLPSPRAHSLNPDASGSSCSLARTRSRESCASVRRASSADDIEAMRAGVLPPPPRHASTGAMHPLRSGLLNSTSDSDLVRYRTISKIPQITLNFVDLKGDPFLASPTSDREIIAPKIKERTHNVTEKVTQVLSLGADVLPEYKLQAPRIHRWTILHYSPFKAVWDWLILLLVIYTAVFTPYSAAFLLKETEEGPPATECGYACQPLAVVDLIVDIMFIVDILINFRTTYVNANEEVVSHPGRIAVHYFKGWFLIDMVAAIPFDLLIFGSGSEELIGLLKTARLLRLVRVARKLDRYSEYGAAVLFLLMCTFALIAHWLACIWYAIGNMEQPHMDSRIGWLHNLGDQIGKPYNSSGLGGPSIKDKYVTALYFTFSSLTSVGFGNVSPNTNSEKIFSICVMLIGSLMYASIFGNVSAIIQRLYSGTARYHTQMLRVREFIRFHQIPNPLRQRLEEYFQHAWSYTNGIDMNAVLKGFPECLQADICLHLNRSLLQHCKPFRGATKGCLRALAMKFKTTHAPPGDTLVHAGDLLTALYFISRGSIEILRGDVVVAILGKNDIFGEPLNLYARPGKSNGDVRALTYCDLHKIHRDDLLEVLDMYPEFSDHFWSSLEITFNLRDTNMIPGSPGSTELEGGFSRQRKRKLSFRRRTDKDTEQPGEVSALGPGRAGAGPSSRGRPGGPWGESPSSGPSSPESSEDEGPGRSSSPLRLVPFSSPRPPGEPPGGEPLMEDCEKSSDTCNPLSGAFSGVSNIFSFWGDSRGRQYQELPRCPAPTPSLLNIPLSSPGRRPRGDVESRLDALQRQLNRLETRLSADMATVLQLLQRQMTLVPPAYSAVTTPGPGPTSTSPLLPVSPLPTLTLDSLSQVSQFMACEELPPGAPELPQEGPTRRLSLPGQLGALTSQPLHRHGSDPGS

[17] = target: 14-3-3 protein gamma (Homo sapiens, UniProt P61981); assay: modulators of 14-3-3 gamma client binding – dose response (AID 711); type: functional
14-3-3 protein gamma, sequence (P61981 whole entry): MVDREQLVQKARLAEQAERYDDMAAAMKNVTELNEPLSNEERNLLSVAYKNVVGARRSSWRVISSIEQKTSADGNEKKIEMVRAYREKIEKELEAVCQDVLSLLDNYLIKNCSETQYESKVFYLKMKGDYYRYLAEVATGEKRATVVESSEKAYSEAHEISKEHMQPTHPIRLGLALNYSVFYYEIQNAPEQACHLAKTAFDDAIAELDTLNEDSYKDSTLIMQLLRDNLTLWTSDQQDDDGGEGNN

[18] = target: Peroxisome proliferator-activated receptor gamma/Nuclear receptor corepressor 2 (Homo sapiens, UniProt P37231+Q9Y618); assay: Counterscreen for NR2E3 inverse agonists: TR-FRET-based biochemical high throughput dose response assay to identify inverse agonists of the interaction between peroxisome proliferator-activated receptor gamma (PPARg) and nuclear receptor co-repressor 2 (NCOR2).; type: functional
[19] = target: Photoreceptor-specific nuclear receptor (Homo sapiens, UniProt Q9Y5X4); assay: ligands suppressing NR2E3 nuclear receptor activity – biochemical, TR-FRET, dose response (AID 463256); type: functional
[20] = target: RNA-editing ligase 1, mitochondrial (Trypanosoma brucei brucei, UniProt P86926); assay: inhibition of trypanosome RNA editing ligase – biochemical, fluorescence, Trypanosoma brucei, dose response (AID 1117295); type: functional
RNA-editing ligase 1, mitochondrial, sequence (P86926 whole entry): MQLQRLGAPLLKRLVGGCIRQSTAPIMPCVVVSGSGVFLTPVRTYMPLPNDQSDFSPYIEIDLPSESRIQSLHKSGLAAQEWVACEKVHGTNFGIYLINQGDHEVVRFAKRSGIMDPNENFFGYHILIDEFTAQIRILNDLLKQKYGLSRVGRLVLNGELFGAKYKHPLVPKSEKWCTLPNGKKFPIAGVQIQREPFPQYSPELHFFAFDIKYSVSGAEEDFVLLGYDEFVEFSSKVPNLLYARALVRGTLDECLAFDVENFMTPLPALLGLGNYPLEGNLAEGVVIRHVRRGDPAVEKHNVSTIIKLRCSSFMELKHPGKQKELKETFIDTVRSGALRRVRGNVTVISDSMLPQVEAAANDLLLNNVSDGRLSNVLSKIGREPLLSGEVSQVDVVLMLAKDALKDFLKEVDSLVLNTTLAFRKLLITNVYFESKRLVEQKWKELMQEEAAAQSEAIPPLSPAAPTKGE
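For AC50 in this document: cells exposed to compound for roughly 70 hours or longer before luminescence read.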

## Fc1ccc(-n2nnc(-c3cccnc3Cl)n2)cc1
[1]
  IC50: > 100 µM (not active)
[2]
  IC50: > 100 µM (not active)
[3]
  IC50: 21 µM (active)
[4]
  EC50: > 67.5 µM (inactive)

## O=c1c(-c2ccco2)[n+]([O-])c2ccccc2n1OCc1ccccn1
[5]
  IC50: > 50 µM (not active)

## O=C(CSC1=NNC(c2ccccn2)S1)Nc1ccc(C(F)(F)F)cc1 (stereo not given)
[6]
  EC50: 43.2 µM (not active)
[7]
  EC50: 15.6 µM (active)
[8]
  EC50: > 350 µM (not active)
[9]
  IC50: > 31.5 µM (inactive)
[10]
  EC50: > 31.5 µM (inactive)
[11]
  IC50: > 32 µM
[12]
  AC50: 3.51 µM (active)
[13]
  IC50: 7.8 µM (active)

## CC1(c2ccc(Cl)c(Cl)c2)N=C(S)N2C1N=C(S)N2c1ccccc1 (stereo not given)
[14]
  IC50: > 100 µM (active)

## O=S(=O)(c1cnc(Cl)c(Cl)c1)N1CCc2ccccc21
[15]
  IC50: 3.96 µM (active)

## C=CCN(CC=C)C(=S)NC(=O)/C=C/c1ccc(OC)cc1
[16]
  EC50: 3.01 µM (active)

## CNC(=O)C(Sc1ccccc1)c1ccccc1 (stereo not given)
[17]
  IC50: > 50 µM (not active)

## O=C(Nc1nccs1)c1cc(-c2ccccn2)nc2c(Cl)cccc12
[18]
  IC50: 2.89 µM (active)
[19]
  IC50: 3.87 µM (active)

## Clc1ccc(CN=C(Nc2ccccc2)NC2CCCCC2)cc1
[20]
  IC50: > 96.6 µM (inactive)
